Test results as given in patent US6358928B1, “Peptidyl sulfonyl imidazolides as selective inhibitors of serine proteases” (Enzyme Systems Products, priority 1999, dated 2002).

What was measured:
human leukocyte elastase = molecular target: T1, human leukocyte elastase (Homo sapiens, UniProt P08246); assay: Inhibition of human leukocyte elastase (kobs/[I], spectrophotometric, MeOSuc-Ala-Ala-Pro-Val-AMC substrate); type: biochemical
T1 sequence (P08246 30-267): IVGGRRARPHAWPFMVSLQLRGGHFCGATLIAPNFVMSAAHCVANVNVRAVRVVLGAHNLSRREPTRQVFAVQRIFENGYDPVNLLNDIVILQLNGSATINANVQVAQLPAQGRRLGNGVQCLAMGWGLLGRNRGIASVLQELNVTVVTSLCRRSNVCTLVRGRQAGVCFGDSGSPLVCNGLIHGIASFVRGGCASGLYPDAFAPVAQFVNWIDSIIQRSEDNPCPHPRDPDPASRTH
Method: (§1) Z-Ala-Ala-AlaCH2SO2-Im, prepared as in Example 1, was assayed for serine protease inhibition activity against human leukocyte elastase. Various concentrations of inhibitor were rapidly mixed with fixed aliquots of enzyme and allowed to react for at least two half-lives. Aliquots of the treated enzyme were then assayed spectrophotometrically for protease activity using MeOSuc-Ala-Ala-Pro-Val-AMC as the substrate to determine kobs/[I]. […] 359-361 (1975), incorporated herein by reference.

human cathepsin G = molecular target: T2, human cathepsin G (Homo sapiens, UniProt P08311); assay: Inhibition of human cathepsin G, assayed as in Example 2; type: biochemical; details: present-tense example
T2 sequence (P08311 21-244): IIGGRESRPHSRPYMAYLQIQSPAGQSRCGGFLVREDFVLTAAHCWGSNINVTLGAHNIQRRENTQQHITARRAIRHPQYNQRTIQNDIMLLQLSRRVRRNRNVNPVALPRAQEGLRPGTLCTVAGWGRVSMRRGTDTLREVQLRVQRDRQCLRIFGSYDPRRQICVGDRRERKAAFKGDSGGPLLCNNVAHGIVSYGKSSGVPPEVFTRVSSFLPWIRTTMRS
Method: as §1
MeOSuc-Ala-Ala-Pro-ValCH2SO2-Im is prepared as in example 3 and assayed as in Example 2 for inhibition of human leukocyte elastase and human cathepsin G with the corresponding peptidyl chloromethane, MeOSuc-Gly-Leu-PheCH2SO2-Im, and Z-Ala-Ala-AlaCH2SO2-Im as comparator inhibitors.
Z-Gly-Leu-PheCH2SO2-Im is prepared as in Example 5, and is assayed as in Example 2 for inhibition of human cathepsin G and human leukocyte elastase with the corresponding peptidyl chloromethane, MeOSuc-Ala-Ala-Pro-ValCH2SO2-Im, and Z-Ala-Ala-AlaCH2SO2-Im as comparator inhibitors.

[1] = enzyme concentration 200 μM, substrate 100 μM, inhibitor 200 μM

## CC(C)C[C@H](NC(=O)CNC(=O)OCc1ccccc1)C(=O)N[C@@H](Cc1ccccc1)CS(=O)(=O)n1ccnc1 [Z-Gly-Leu-PheCH2SO2-Im]
Human leukocyte elastase; present-tense example
  kobs/[I] against human leukocyte elastase compared with MeOSuc-Ala-Ala-Pro-ValCH2SO2-Im: significantly lower
Human cathepsin G; comparators: corresponding peptidyl chloromethane, MeOSuc-Ala-Ala-Pro-ValCH2SO2-Im, Z-Ala-Ala-AlaCH2SO2-Im
  kobs/[I] against human cathepsin G compared with comparator inhibitors: significantly higher

## MeOSuc-Ala-Ala-Pro-ValCH2SO2-Im
Human leukocyte elastase; comparators: corresponding peptidyl chloromethane, MeOSuc-Gly-Leu-PheCH2SO2-Im, Z-Ala-Ala-AlaCH2SO2-Im, present-tense example
  kobs/[I] against human leukocyte elastase compared with comparator inhibitors: significantly higher
Human cathepsin G
  kobs/[I] against human cathepsin G compared with MeOSuc-Gly-Leu-PheCH2SO2-Im: significantly lower

## C[C@H](NC(=O)OCc1ccccc1)C(=O)N[C@@H](C)C(=O)N[C@@H](C)CS(=O)(=O)n1ccnc1 [Z-Ala-Ala-AlaCH2SO2-Im]
Human leukocyte elastase; comparator value as reported in Tuhy and Powers, FEBS Letters 50, 359-361 (1975)
  times more potent than the corresponding peptidyl chloromethane inhibitor: 45 times
Human leukocyte elastase; [1]
  kobs: 0.0025 s⁻¹
  kobs/[I]: 12.7 M⁻¹ s⁻¹
